Laboratory results reported in PMC5493200 (ACS infectious diseases, 2016).
Values after ≈ are worked out from the molar mass of the structure shown. Where two headings read alike, the source gives them in different places.

Legend:
[1] = mouse liver microsomes; starred compounds; ref [4]; cited from earlier work
[2] = system: M. tuberculosis H37Rv Rv1258c knockout (KO); assay: microbe, parasite or virus in culture; assay type: cell-based; details: for Rv1258c KO MIC: Tables 1-4 and text, 7 days, 7H9 broth
Rv1258c efflux pump = details: H37Rv MIC / Rv1258c KO MIC
M. tuberculosis H37Rv = assay: microbe, parasite or virus in culture; assay type: cell-based, Mycobacterium tuberculosis; details: for MIC (H37Rv): Table 5; for H37Rv MIC: Tables 1-4 and text
[3] = human liver microsomes; starred compounds; ref [4]; cited from earlier work
[4] = ref [18]; cited from earlier work
Protein binding, mouse = assay type: in vitro ADME
[5] = molecular target: Purified 70S M. smegmatis bacterial ribosomes (Mycolicibacterium smegmatis, UniProt A0QSG6); assay: Ribosomal translation inhibition; assay type: biochemical; details: inhibits luciferase activity by 50%
[6] = Microsomal stability, mouse; assay type: in vitro ADME; details: mouse liver microsomes
M. tuberculosis Erdman = assay: Mouse model of acute tuberculosis infection; assay type: in vivo; details: 200 mg/kg BID, 9 days, subcutaneous, vs control
Protein binding, human = assay type: in vitro ADME
[7] = Microsomal stability, human; assay type: in vitro ADME; details: human liver microsomes
HepG2 cells = assay: Mammalian cytotoxicity; assay type: cell-based
M. bovis BCG = assay type: cell-based; details: average of 2–3 replicates, standard deviation in parenthesis

Sequence of Purified 70S M. smegmatis bacterial ribosomes (A0QSG6 whole entry): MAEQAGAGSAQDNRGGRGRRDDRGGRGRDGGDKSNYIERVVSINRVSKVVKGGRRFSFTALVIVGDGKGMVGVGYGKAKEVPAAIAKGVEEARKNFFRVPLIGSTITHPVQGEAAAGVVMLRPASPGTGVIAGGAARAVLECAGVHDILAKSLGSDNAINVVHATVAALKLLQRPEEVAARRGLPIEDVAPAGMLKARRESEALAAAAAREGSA

CN[C@@H]1[C@H](O)[C@H](NC)[C@H]2O[C@@]3(O)C(=O)C[C@@H](C)O[C@H]3O[C@@H]2[C@H]1O [SPC, Spectinomycin, reference compound]
Microsomal stability t1/2 mouse [1]: >10 h | MIC ([2]; Mycobacterium tuberculosis, H37RV, 168 h, read-out: Rv1258c KO MIC): 6.3 µg/mL (≈ 19 µM) | Efflux Ratio (Rv1258c efflux pump): 16 | MIC (M. tuberculosis H37Rv; Mycobacterium tuberculosis, H37RV, 168 h, read-out: H37Rv MIC): 100 µg/mL (≈ 301 µM) | Microsomal stability t1/2 human [3]: 2.5 h

Br.Br.Br.CN[C@@H]1[C@H](O)[C@H](NC)[C@H]2O[C@]3(O)[C@H](O[C@@H]2[C@H]1O)O[C@H](C)C[C@H]3NC(=O)Cc1cc(Cl)c(OC)cn1 [Compound 48, 3′-Dihydro-3′-deoxy-3′(R)-(4-chloro-5-methoxypyridin-2-yl)acetylamino spectinomycin trihydrobromide]
Phase II conjugative metabolism [4]: subject to metabolism | Rv1258c KO MIC [2]: 3.1 µg/mL | Protein binding mouse (Protein binding, mouse): 72.9% | Ribosome IC50 [5]: 0.42 µg/mL | Microsomal stability t1/2 mouse [6]: 5.5 h | Reduction of bacterial load in lungs (M. tuberculosis Erdman; second new trial (Figure 3C)): 1.6 log | Protein binding human (Protein binding, human): 61.6% | Microsomal stability t1/2 human [7]: 6.3 h | MIC (H37Rv) (M. tuberculosis H37Rv): 3.1 µg/mL | H37Rv MIC (M. tuberculosis H37Rv): 3.1 µg/mL | Cytotoxicity (HepG2) (HepG2 cells): >400 µg/mL | Post Antibiotic Effect (M. bovis BCG): 72 (10) h

Br.Br.Br.CN[C@@H]1[C@H](O)[C@H](NC)[C@H]2O[C@]3(O)[C@H](O[C@@H]2[C@H]1O)O[C@H](C)C[C@H]3NC(=O)Cc1cc(Cl)c(C)cn1 [Compound 47, 3′-Dihydro-3′-deoxy-3′(R)-(4-chloro-5-methylpyridin-2-yl)acetylamino spectinomycin trihydrobromide]
Phase II conjugative metabolism [4]: subject to some phase II conjugative metabolism | Rv1258c KO MIC [2]: 0.8 µg/mL | Protein binding mouse (Protein binding, mouse): 42.7% | Ribosome IC50 [5]: 0.23 µg/mL | Microsomal stability t1/2 mouse [6]: >50 h | Reduction of bacterial load in lungs (M. tuberculosis Erdman; first new trial (Figure 3B)): more than 2 logs | Protein binding human (Protein binding, human): 43.9% | Microsomal stability t1/2 human [7]: >50 h | MIC (H37Rv) (M. tuberculosis H37Rv): 0.8 µg/mL | H37Rv MIC (M. tuberculosis H37Rv): 0.8 µg/mL | Cytotoxicity (HepG2) (HepG2 cells): >400 µg/mL | Post Antibiotic Effect (M. bovis BCG): 102 (15) h
